Read-outs that look alike come from different tables or passages of the source.
What was measured:
Assay type in all cases: cell-based
[1] = system: Enterobacter aerogenes (EAE) isolates; assay: MIC of compounds alone and combined with antibacterials, broth microdilution (CLSI); details: Klebsiella aerogenes, alone, read-out: MIC
Procedure: (§1) Method 2: MIC of Compounds Alone and Combined with Antibacterials Against Bacterial Isolates
(§2) Compounds of the present invention were assessed against genotyped bacterial strains (Table 3, 4) alone or in combination with an antibacterial (Table 2). […] Log phase bacterial suspensions were adjusted to a final density of 5.10^5 CFU/mL in cation-adjusted Mueller-Hinton broth (ca-MHB; Becton-Dickinson and Company) and added to each well (98 μL). Microplates were incubated for 16-20 h at 35° C. in ambient air. The MIC of the compounds was defined as the lowest concentration of said compounds that prevented bacterial growth as read by visual inspection. The MIC of ATB at each compound concentration was defined as the lowest concentration of ATB that prevented bacterial growth as read by visual inspection.

[2] = system: Klebsiella oxytoca (KOX) isolates; assay: as above; details: Klebsiella oxytoca, alone, read-out: MIC
Procedure: as §1, §2

[3] = system: Proteus mirabilis (PMI) isolates; assay: microbe, parasite or virus in culture; details: Proteus mirabilis, read-out: MIC
Procedure: as §1, §2

[4] = system: Salmonella typhimurium (STY) isolates; assay: MIC of compounds alone and combined with antibacterials, broth microdilution (CLSI); details: Salmonella enterica, TYPHIMURIUM; STY S3371; alone; read-out: MIC
Procedure: as §1
(§3) Compounds of the present invention were assessed against genotyped bacterial strains (Table 3, 4) alone or in combination with an antibacterial (Table 2). […]. Briefly, compounds alone according to the invention were prepared in DMSO and spotted (2 μL each) on sterile polystyrene plates (Corning, 3788). Combinations of compounds and antibiotics dilutions were prepared in DMSO and spotted (1 μL each) on sterile polystyrene plates (Corning, 3788). Log phase bacterial suspensions were adjusted to a final density of 5.10^5 CFU/mL in cation-adjusted Mueller-Hinton broth (ca-MHB; Becton-Dickinson and Company) and added to each well (98 μL). Microplates were incubated for 16-20 h at 35° C. in ambient air. The MIC of the compounds was defined as the lowest concentration of said compounds that prevented bacterial growth as read by visual inspection. The MIC of ATB at each compound concentration was defined as the lowest concentration of ATB that prevented bacterial growth as read by visual inspection.

[5] = system: Providencia stuartii (PST) isolates; assay: as above; details: Providencia stuartii, read-out: MIC
Procedure: as §1, §3

`O=C1N2CC(c3ncco3)=CC(C2)N1OC(F)(F)C(=O)[O-].[Li+]` (centres unmarked) [AF2] gave an MIC ([1]; EAE 49469) of 8 µg/mL, an MIC ([1]; EAE 200261) of 16 µg/mL and an MIC ([1]; EAE UFR199) of 16 µg/mL. It also gave an MIC ([1]; EAE UFR201) of 4 µg/mL, an MIC ([1]; EAE UFR202) of 32 µg/mL and an MIC ([1]; EAE UFR207) of 4 µg/mL. For the same compound, the MIC ([1]; EAE UFR213) was 16 µg/mL, the MIC ([2]; KOX UFR21) was 16 µg/mL and the MIC ([2]; KOX UFR173) was 16 µg/mL. It also gave an MIC ([2]; KOX UFR223) of 8 µg/mL, an MIC ([2]; KOX UFR224) of 8 µg/mL and an MIC ([3]; PMI UFR128, alone) of 8 µg/mL. The MIC ([3]; PMI UFR129, alone) was 4 µg/mL, the MIC ([3]; PMI UFR130, alone) was 4 µg/mL and the MIC ([3]; strain PMI UFR132, compound alone) was 4 µg/mL. It also gave an MIC [4] of 8 µg/mL, an MIC ([5]; PST UFR94, alone) of 16 µg/mL and an MIC ([5]; PST UFR95, alone) of 32 µg/mL. The MIC ([5]; PST UFR120, alone) was 8 µg/mL, the MIC ([5]; PST UFR121, alone) was 4 µg/mL and the MIC ([5]; PST UFR122, alone) was 4 µg/mL. The MIC ([5]; PST UFR123, alone) was 8 µg/mL, the MIC ([5]; PST UFR124, alone) was 8 µg/mL and the MIC ([5]; PST UFR125, alone) was 8 µg/mL. The MIC ([5]; PST UFR235, alone) was 16 µg/mL and the MIC ([5]; strain PST UFR98, compound alone) was 32 µg/mL.
